From patent publication US20240376097A1, “BCL-2 Inhibitor” (BeiGene Ltd., priority 2020, published 2024) come the findings set out here.

Like-named read-outs stand apart in the source and are kept apart here.

The target in experiment [1] is recombinant human Bcl-2 D103Y protein (Homo sapiens (Human), UniProt P10415, D103Y). Briefly: Bcl-2-D103Y Biochemical Assay (TR-FRET). The class given is binding. The settings on record: for IC50: TR-FRET, FITC labeled Bak peptide; for Ratio of Bcl-2 D103Y/Bcl-2 WT: ratio of IC50. Summed up: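 Recombinant human Bcl-2 D103Y binding to its ligand measured by TR-FRET (ex 337 nm, em 490/520 nm) with increasing compound concentrations. Percent inhibition from the 490/520 nm ratio; IC50 from four-parameter logistic fit.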

Experiment [2] has as its target recombinant human Bcl-2-G101V protein (Homo sapiens (Human), UniProt P10415, G101V). Kind of experiment: Bcl-2-G101V TR-FRET Assay. The class given is binding. To be noted: Bcl-2 G101V mutant, TR-FRET; read-out: Biochemical assay (IC50, nM) Bcl-2 G101V. In a few lines: (§1)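 TR-FRET read at excitation 337 nm with emission at 490 nm and 520 nm. Inhibition of Bcl-2-G101V binding to its ligand across increasing compound concentrations was calculated from the 490/520 nm fluorescence ratio, and IC50 values came from four-parameter logistic fits.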

In experiment [3] the test system is recombinant human Bcl-2-G101V protein. Briefly: Bcl-2-G101V TR-FRET Assay. In kind it is binding. To be noted: ratio of biochemical IC50 Bcl-2 G101V / Bcl-2 WT. Summed up: as §1
Experiment [4] has as its target Recombinant human Bcl-2 protein (Homo sapiens (Human), UniProt P10415). Briefly: Bcl-2 TR-FRET Assay. The class given is binding. Summed up:
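0.05 nM Bcl-2 pre-incubated 0.5 h at room temperature with 10-point compound dilutions (top final 1, 0.1, 0.02 or 0.01 uM) in 20 mM potassium phosphate pH 7.5, 50 mM NaCl, 1 mM EDTA, 0.05% Tween-20, 0.01% BSA; FITC-Bak peptide (0.5 nM) and anti-6His Tb cryptate added, 1 h. IC50 from four-parameter logistic fit.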

In experiment [5] the test system is BCL-2 G101V knock-in cell line H96 (derive from RS4;11). Kind of experiment: Bcl 2-G101V Knock-In RS4;11 Cell Proliferation Assay. In kind it is cell-based. The settings on record: Homo sapiens, RS4;11 Bcl-2 G101V knock-in clone H96, 48 hrs, CellTiter-GLO, read-out: Cellular proliferation assay (IC50, nM) RS4. Summed up: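 H96, a CRISPR-generated RS4;11 clone carrying BCL2-G101V knock-in (WES/RNA-seq validated), seeded 50,000 per well and exposed 48 h at 37 °C to 10-point dilutions topping at 1 or 10 μM. Viability by CellTiter-Glo luminescence; mean IC50.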

Experiment [6] concerns RS4;11 (BCL-2 dependent acute lymphoblastic leukemia cell line). Briefly: RS4;11 Cell Proliferation Assay. The class given is cell-based. The settings on record: Homo sapiens, RS4-11, RS4;11 cells, read-out: Cellular proliferation assay (IC50, nM) RS4. Summed up:
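RS4;11 cells, 50,000 per well in RPMI-1640 with 10% FBS, treated 48 h at 37 °C with a 10-point dilution series topping at 1 μM. Viability read by CellTiter-Glo ATP luminescence; mean IC50 reported.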

Where [7] appears, read: Bcl-2 wild type, TR-FRET, read-out: Biochemical assay (IC50, nM) Bcl-2 WT.
[8] abbreviates: wild type Bcl-2, unit inferred, read-out: Bcl-2 WT.

For `COc1ccc(CN2CCN(C3CC4(CCN(c5ccc(C(=O)NS(=O)(=O)c6ccc(NC[C@H]7CC[C@](C)(O)CC7)c([N+](=O)[O-])c6)c(Oc6cnc7[nH]ccc7c6)c5)CC4)C3)[C@@H](c3ccccc3C(C)C)C2)cc1` [Example 19b, 2-((1H-pyrrolo[2,3-b]pyridin-5-yl)oxy)-N-((4-((((1r,4r)-4-hydroxy-4-methylcyclohexyl)methyl)amino)-3-nitrophenyl)sulfonyl)-4-(2-((S)-2-(2-isopropylphenyl)-4-(4-methoxybenzyl)piperazin-1-yl)-7-azaspiro[3.5]nonan-7-yl)benzamide], the IC50 worked out at 16 nM in experiment [1]; 10 nM in experiment [2]; 0.16 nM in experiment [4] (setting [7]); 0.16 nM in experiment [4] (setting [8]); 44 nM in experiment [5]; 6.8 nM in experiment [6]. In addition, the “Ratio of Bcl-2 D103Y/Bcl-2 WT” value in experiment [1] was 100. Moreover, in experiment [3], the “Ratio of Bcl-2 G101V/WT” value is reported as 62.5.

Regarding `COc1cc(CN2CCN(C3CC4(CCN(c5ccc(C(=O)NS(=O)(=O)c6ccc(NC[C@H]7CC[C@](C)(O)CC7)c([N+](=O)[O-])c6)c(Oc6cnc7[nH]cc(F)c7c6)c5)CC4)C3)[C@H](c3ccccc3C(C)C)C2)ccc1C1CC1` [Example 258, 4-(2-((R)-4-(4-cyclopropyl-3-methoxybenzyl)-2-(2-isopropylphenyl)piperazin-1-yl)-7-azaspiro[3.5]nonan-7-yl)-2-((3-fluoro-1H-pyrrolo[2,3-b]pyridin-5-yl)oxy)-N-((4-((((1r,4r)-4-hydroxy-4-methylcyclohexyl)methyl)amino)-3-nitrophenyl)sulfonyl) benzamide], the IC50 in experiment [1] amounted to 1.5 nM; in experiment [2] it was 1.75 nM; in experiment [4] (setting [7]) it was 0.85 nM; in experiment [4] (setting [8]) it was 0.85 nM; in experiment [5] it was 0.28 nM; in experiment [6] it was 0.11 nM. Also, the “Ratio of Bcl-2 D103Y/Bcl-2 WT” value in experiment [1] was 1.8. For the same compound, in experiment [3], the “Ratio of Bcl-2 G101V/WT” value amounted to 2.1.

With `COc1ccc(CN2CCN(C3CC4(CCN(c5ccc(C(=O)NS(=O)(=O)c6ccc(OCC7CCC(C)(O)CC7)c([N+](=O)[O-])c6)c(Oc6cnc7[nH]ccc7c6)c5)CC4)C3)[C@H](c3ccccc3C(C)C)C2)cc1` (stereo partly drawn) [Example 236, (R)-2-((1H-pyrrolo[2,3-b]pyridin-5-yl)oxy)-N-((4-((4-hydroxy-4-methylcyclohexyl)methoxy)-3-nitrophenyl)sulfonyl)-4-(2-(2-(2-isopropylphenyl)-4-(4-methoxybenzyl)piperazin-1-yl)-7-azaspiro[3.5]nonan-7-yl)benzamide], the IC50 in experiment [1] worked out at 0.22 nM; in experiment [2], 0.56 nM; in experiment [4] (setting [7]) it was 0.16 nM; in experiment [4] (setting [8]) it was 0.16 nM; in experiment [5], 0.8 nM; in experiment [6], 0.16 nM. For the same compound, in experiment [1], the “Ratio of Bcl-2 D103Y/Bcl-2 WT” value amounted to 1.3. In addition, in experiment [3], the “Ratio of Bcl-2 G101V/WT” value is given as 3.5.

On to `CC(C)c1ccccc1C1CN(Cc2ccccc2)CCN1C1CC2(CCN(c3ccc(C(=O)NS(=O)(=O)c4ccc(NCC5(F)CCOCC5)c([N+](=O)[O-])c4)c(Oc4cnc5[nH]ccc5c4)c3)CC2)C1` (stereo not drawn) [Example 27, 2-((1H-pyrrolo[2,3-b]pyridin-5-yl)oxy)-4-(2-(4-benzyl-2-(2-isopropylphenyl)piperazin-1-yl)-7-azaspiro[3.5]nonan-7-yl)-N-((4-(((4-fluorotetrahydro-2H-pyran-4-yl)methyl)amino)-3-nitrophenyl)sulfonyl)benzamide], for which the IC50 in experiment [1] amounted to 0.49 nM; in experiment [2], 2.7 nM; in experiment [4] (setting [7]) it was 0.27 nM; in experiment [4] (setting [8]), 0.27 nM; in experiment [5], 7.77 nM; in experiment [6], 1.05 nM. Further, in experiment [1], the “Ratio of Bcl-2 D103Y/Bcl-2 WT” value worked out at 1.8. In experiment [3], the “Ratio of Bcl-2 G101V/WT” value is 10.0.

Consider `COc1cc(CN2CCN(C3CC4(CCN(c5ccc(C(=O)NS(=O)(=O)c6ccc(NC[C@H]7CC[C@](C)(O)CC7)c([N+](=O)[O-])c6)c(Oc6cnc7[nH]ccc7c6)c5)CC4)C3)[C@H](c3ccccc3C(C)C)C2)ccc1C` [Example 260, 2-((1H-pyrrolo[2,3-b]pyridin-5-yl)oxy)-N-((4-((((1r,4r)-4-hydroxy-4-methylcyclohexyl)methyl)amino)-3-nitrophenyl)sulfonyl)-4-(2-((R)-2-(2-isopropylphenyl)-4-(3-methoxy-4-methylbenzyl)piperazin-1-yl)-7-azaspiro[3.5]nonan-7-yl)benzamide], for which the IC50 in experiment [1] was determined as 0.27 nM; in experiment [2] it was 0.75 nM; in experiment [4] (setting [7]) it was 0.34 nM; in experiment [4] (setting [8]) it was 0.24 nM; in experiment [5], 0.33 nM; in experiment [6], 0.13 nM. The “Ratio of Bcl-2 D103Y/Bcl-2 WT” value in experiment [1] was 1.1. The “Ratio of Bcl-2 G101V/WT” value in experiment [3] turned out to be 2.2.

For `CC(C)c1ccccc1C1CN(Cc2cccc3c2OCO3)CCN1C1CC2(CCN(c3ccc(C(=O)NS(=O)(=O)c4ccc(NC[C@H]5CC[C@](C)(O)CC5)c([N+](=O)[O-])c4)c(Oc4cnc5[nH]ccc5c4)c3)CC2)C1` (stereo partly drawn) [Example 115, 2-((1H-pyrrolo[2,3-b]pyridin-5-yl)oxy)-4-(2-(4-(benzo[d][1,3]dioxol-4-ylmethyl)-2-(2-isopropylphenyl)piperazin-1-yl)-7-azaspiro[3.5]nonan-7-yl)-N-((4-((((1r,4r)-4-hydroxy-4-methylcyclohexyl)methyl)amino)-3-nitrophenyl)sulfonyl)benzamide], the IC50 in experiment [1] came out at 0.57 nM; in experiment [2], 0.37 nM; in experiment [4] (setting [7]) it was 0.097 nM; in experiment [4] (setting [8]), 0.097 nM; in experiment [5], 2.3 nM; in experiment [6], 0.42 nM. Besides, in experiment [1], the “Ratio of Bcl-2 D103Y/Bcl-2 WT” value came out at 5.9. Besides, in experiment [3], the “Ratio of Bcl-2 G101V/WT” value came to 3.8.

Regarding `[2H]C([2H])([2H])Oc1ccc(CN2CCN(C3CC4(C3)CN(c3ccc(C(=O)NS(=O)(=O)c5ccc(NC[C@H]6CC[C@](C)(O)CC6)c([N+](=O)[O-])c5)c(Oc5cnc6[nH]ccc6c5)c3)C4)[C@H](c3ccccc3C(C)C)C2)cc1OC([2H])([2H])[2H]` [Example 243, 2-((1H-pyrrolo[2,3-b]pyridin-5-yl)oxy)-4-(6-((R)-4-(3,4-bis(methoxy-d3)benzyl)-2-(2-isopropylphenyl)piperazin-1-yl)-2-azaspiro[3.3]heptan-2-yl)-N-((4-((((1r,4r)-4-hydroxy-4-methylcyclohexyl)methyl)amino)-3-nitrophenyl)sulfonyl)benzamide], the IC50 in experiment [1] turned out to be 0.041 nM; in experiment [2], 0.086 nM; in experiment [4] (setting [7]), 0.04 nM; in experiment [4] (setting [8]), 0.041 nM; in experiment [5], 0.22 nM; in experiment [6] it was 0.12 nM. The “Ratio of Bcl-2 D103Y/Bcl-2 WT” value in experiment [1] came to 1. Besides, the “Ratio of Bcl-2 G101V/WT” value in experiment [3] is given as 2.1.

In the case of `COC1C2CC3CCC(CN4CCN(C5CC6(C5)CN(c5ccc(C(=O)NS(=O)(=O)c7ccc(NC[C@H]8CC[C@](C)(O)CC8)c([N+](=O)[O-])c7)c(Oc7cnc8[nH]cc(F)c8c7)c5)C6)[C@H](c5ccccc5C(C)C)C4)(C2)CC31` (stereo partly drawn) [Example 355, 2-((3-fluoro-1H-pyrrolo[2,3-b]pyridin-5-yl)oxy)-N-((4-((((1r,4r)-4-hydroxy-4-methylcyclohexyl)methyl)amino)-3-nitrophenyl)sulfonyl)-4-(6-((2R)-2-(2-isopropylphenyl)-4-((3-methoxyoctahydro-5H-2,5-methanoinden-5-yl)methyl)piperazin-1-yl)-2-azaspiro[3.3]heptan-2-yl)benzamide], the IC50 in experiment [1] was found to be 1.8 nM; in experiment [2] it was 1.1 nM; in experiment [4] (setting [7]) it was 0.31 nM; in experiment [4] (setting [8]), 0.31 nM; in experiment [5] it was 2.8 nM; in experiment [6], 0.2 nM. The “Ratio of Bcl-2 D103Y/Bcl-2 WT” value in experiment [1] is listed as 5.8. Moreover, the “Ratio of Bcl-2 G101V/WT” value in experiment [3] came to 3.6.

For the compound `CC(C)c1ccccc1[C@@H]1CN(Cc2ccc3c(c2)OCCC3)CCN1C1CC2(CCN(c3ccc(C(=O)NS(=O)(=O)c4ccc(NC[C@H]5CC[C@](C)(O)CC5)c([N+](=O)[O-])c4)c(Oc4cnc5[nH]ccc5c4)c3)CC2)C1` [Example 282], the IC50 was 0.47 nM in experiment [1]; 0.97 nM in experiment [2]; 0.25 nM in experiment [4] (setting [7]); 0.25 nM in experiment [4] (setting [8]); 4.2 nM in experiment [5]; 0.36 nM in experiment [6]. For the same compound, in experiment [1], the “Ratio of Bcl-2 D103Y/Bcl-2 WT” value amounted to 1.9. Besides, in experiment [3], the “Ratio of Bcl-2 G101V/WT” value is 3.9.
